# Source: US6635771B2, “N-benzhydryl indole compounds” (Wyeth, priority 2001, dated 2003)
# pIC50: −log10 of the molar value.
# Biological target: T1, cPLA2 (Homo sapiens, UniProt P47712)
# T1 sequence (P47712 1-749): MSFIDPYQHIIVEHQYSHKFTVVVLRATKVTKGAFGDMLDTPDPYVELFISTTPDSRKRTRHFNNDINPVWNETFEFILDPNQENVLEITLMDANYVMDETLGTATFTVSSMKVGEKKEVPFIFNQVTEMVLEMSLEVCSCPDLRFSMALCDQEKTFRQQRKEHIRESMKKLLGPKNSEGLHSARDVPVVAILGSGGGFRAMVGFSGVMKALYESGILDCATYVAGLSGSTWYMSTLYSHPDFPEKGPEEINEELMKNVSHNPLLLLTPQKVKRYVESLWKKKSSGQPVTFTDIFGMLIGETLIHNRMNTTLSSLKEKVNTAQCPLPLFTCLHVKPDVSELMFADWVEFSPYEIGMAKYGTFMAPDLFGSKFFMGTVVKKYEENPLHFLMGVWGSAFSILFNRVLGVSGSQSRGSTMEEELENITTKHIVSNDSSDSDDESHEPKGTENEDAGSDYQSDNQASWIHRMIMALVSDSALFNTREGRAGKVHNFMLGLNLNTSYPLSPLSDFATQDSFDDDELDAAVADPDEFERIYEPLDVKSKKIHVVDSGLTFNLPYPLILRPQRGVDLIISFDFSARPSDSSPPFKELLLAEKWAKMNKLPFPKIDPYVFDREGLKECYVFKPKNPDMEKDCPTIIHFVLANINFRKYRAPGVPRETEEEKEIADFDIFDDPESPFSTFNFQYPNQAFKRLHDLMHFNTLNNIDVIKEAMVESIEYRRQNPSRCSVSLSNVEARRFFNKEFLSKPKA
# Assay: Coumarine Assay
# Format: biochemical
# Settings: 60 μM 7-hydroxycoumarinyl 6-heptenoate substrate, 4 μg cPLA2, pH 7.5, fluorescence ex 360 nm / em 460 nm; read-out: Coumarin IC50
row,Compound,pIC50
1,"N#Cc1cccc(CS(=O)(=O)NCCc2c(CCOc3ccc(C(=O)O)cc3)c3cc(Cl)ccc3n2C(c2ccccc2)c2ccccc2)c1 [Example 36, 4-{2-[1-Benzhydryl-5-chloro-2-(2-{[(3-cyanobenzyl)sulfonyl]amino}ethyl)-1H-indol-3-yl]ethoxy}benzoic acid]",6.30
2,"O=C(O)c1ccc(OCCc2c(CCNS(=O)(=O)Cc3ccc(Cl)cc3Cl)n(C(c3ccccc3)c3ccccc3)c3ccc(Cl)cc23)cc1 [Example 30, 4-{2-[1-benzhydryl-5-chloro-2-(2-{[(2,4-dichlorobenzyl)sulfonyl]amino}ethyl)-1H-indol-3-yl]ethoxy}benzoic acid]",6.82
3,"CC1CCC(C)N1CCS(=O)(=O)NCCc1c(CCOc2ccc(C(=O)O)cc2)c2cc(Cl)ccc2n1C(c1ccccc1)c1ccccc1 (stereo not shown) [Example 115, 4-[2-(1-Benzhydryl-5-chloro-2-{2-[2-(2,5-dimethyl-pyrrolidin-1-yl)-ethanesulfonylamino]-ethyl}-1H-indol-3-yl)-ethoxy]-benzoic acid]",6.05
4,"CC1CCCC(C)N1CCS(=O)(=O)NCCc1c(CCCc2ccc(C(=O)O)cc2)c2cc(Cl)ccc2n1C(c1ccccc1)c1ccccc1 (stereo not shown) [Example 101, 4-[3-(1-Benzhydryl-5-chloro-2-{2-[2-(2,6-dimethyl-piperidin-1-yl)-ethanesulfonylamino]-ethyl}-1H-indol-3-yl)-propyl]-benzoic acid]",7.00
5,"CC1CCCN1CCS(=O)(=O)NCCc1c(CCOc2ccc(C(=O)O)cc2)c2cc(Cl)ccc2n1C(c1ccccc1)c1ccccc1 (stereo not shown) [Example 113, 4-[2-(1-Benzhydryl-5-chloro-2-{2-[2-(2-methyl-pyrrolidin-1-yl)-ethanesulfonylamino]-ethyl}-1H-indol-3-yl)-ethoxy]-benzoic acid]",5.89
6,"O=C(O)c1ccc(OCCc2c(CCNS(=O)(=O)C3CC3)n(C(c3ccccc3)c3ccccc3)c3ccc(Cl)cc23)cc1 [Example 23, 4-[2-(1-benzhydryl-5-chloro-2-{2-[(cyclopropylsulfonyl)amino]ethyl}-1H-indol-3-yl)ethoxy]benzoic acid]",5.82
7,O=C(O)c1ccc(OCCc2c(CCNS(=O)(=O)Cc3ccncc3)n(C(c3ccccc3)c3ccccc3)c3ccc(Cl)cc23)cc1 [Example 50],6.16
8,"O=C(O)c1ccc(CCCc2c(CCNS(=O)(=O)Cc3cc(Cl)cc(Cl)c3)n(C(c3ccccc3)c3ccccc3)c3ccc(Cl)cc23)cc1 [Example 43, 4-{3-[1-benzhydryl-5-chloro-2-(2-{[(3,5-dichlorobenzyl)sulfonyl]amino}ethyl)-1H-indol-3-yl]propyl}benzoic acid]",6.70
9,"COc1cccc(CS(=O)(=O)NCCc2c(CCOc3ccc(C(=O)O)cc3)c3cc(Cl)ccc3n2C(c2ccccc2)c2ccccc2)c1 [Example 77, 4-{2-[1-Benzhydryl-5chloro-2-(2-{[(3-methoxybenzyl)sulfonyl]amino}ethyl)-1H-indol-3-yl]ethoxy}benzoic acid]",6.32
10,"O=C(O)c1ccc(OCCc2c(CCNS(=O)(=O)c3ccc4ccccc4c3)n(C(c3ccccc3)c3ccccc3)c3ccc(Cl)cc23)cc1 [Example 26, 4-[2-(1-benzhydryl-5-chloro-2-{2-[(2-naphthylsulfonyl)amino]ethyl}-1H-indol-3-yl)ethoxy]benzoic acid]",5.96
11,"O=C(O)c1ccc(OCCc2c(CCNS(=O)(=O)Cc3cccc(Cl)c3Cl)n(C(c3ccccc3)c3ccccc3)c3ccc(Cl)cc23)cc1 [Example 29, 4-{2-[1-benzhydryl-5-chloro-2-(2-{[(2,3-dichlorobenzyl)sulfonyl]amino}ethyl)-1H indol-3-yl]ethoxy}benzoic acid]",6.72
12,"N#Cc1ccc(CS(=O)(=O)NCCc2c(CCOc3ccc(C(=O)O)cc3)c3cc(Cl)ccc3n2C(c2ccccc2)c2ccccc2)cc1 [Example 37, 4-{2-[1-Benzhydryl-5-chloro-2-(2-{[(4-cyanobenzyl)sulfonyl]amino}ethyl)-1H-indol-3-yl]ethoxy}benzoic acid]",6.43
13,"O=C(O)c1ccc(OCCc2c(CCNS(=O)(=O)CC3CCCCO3)n(C(c3ccccc3)c3ccccc3)c3ccc(Cl)cc23)cc1 (stereo not shown) [Example 109, 4-{2-[1-Benzhydryl-5-chloro-2-(2-{[(tetrahydro-2H-pyran-2-ylmethyl)sulfonyl]amino}ethyl)-1H-indol-3-yl]ethoxy}benzoic acid]",6.40
14,"CC1CCCCN1CCS(=O)(=O)NCCc1c(CCOc2ccc(C(=O)O)cc2)c2cc(Cl)ccc2n1C(c1ccccc1)c1ccccc1 (stereo not shown) [Example 114, 4-[2-(1-Benzhydryl-5-chloro-2-{2-[2-(2-methyl-piperidin-1-yl)-ethanesulfonylamino]-ethyl}-1H-indol-3-yl)-ethoxy]-benzoic acid]",5.96
15,"O=C(O)c1ccc(S(=O)(=O)CCc2c(CCNS(=O)(=O)Cc3ccccc3F)n(C(c3ccccc3)c3ccccc3)c3ccc(Cl)cc23)cc1 [Example 138, 4-({2-[1-benzhydryl-5-chloro-2-(2-{[(2-fluorobenzyl)sulfonyl]amino}ethyl)-1H-indol-3-yl]ethyl}sulfonyl)benzoic acid]",6.70
16,"NS(=O)(=O)c1ccc(CS(=O)(=O)NCCc2c(CCOc3ccc(C(=O)O)cc3)c3cc(Cl)ccc3n2C(c2ccccc2)c2ccccc2)cc1 [Example 39, 4-(2-{2-[2-({[4-(Aminosulfonyl)benzyl]sulfonyl}amino)ethyl]-1-benzhydryl-5-chloro-1H-indol-3-yl}ethoxy)benzoic acid]",6.49
17,O=C(O)c1ccc(CCCc2c(CCNS(=O)(=O)Cc3ccc(F)cc3)n(C(c3ccccc3)c3ccccc3)c3ccc(Cl)cc23)cc1 [Example 57],6.55
18,"Cc1cccc(C)c1CS(=O)(=O)NCCc1c(CCS(=O)(=O)c2ccc(C(=O)O)cc2)c2cc(Cl)ccc2n1C(c1ccccc1)c1ccccc1 [Example 141, 4-({2-[1-benzhydryl-5-chloro-2-(2-{[(2,6-dimethylbenzyl)sulfonyl]amino}ethyl) 1H-indol-3-yl]ethyl}sulfonyl)benzoic acid]",6.77
19,"Cn1cnc(S(=O)(=O)NCCc2c(CCOc3ccc(C(=O)O)cc3)c3cc(Cl)ccc3n2C(c2ccccc2)c2ccccc2)c1 [Example 4, 4-{2-[1-Benzhydryl-5-chloro-2-(2{[(1-methyl-1H-imidazol-4-yl)sulfonyl]amino}ethyl)-1H-indol-3-yl]ethoxy}benzoic acid]",4.25
20,"O=C(O)c1ccc(CCCc2c(CCNS(=O)(=O)Cc3ccccc3)n(C(c3ccccc3)c3ccccc3)c3ccccc23)cc1 [Example 128, 4-[3-(1-benzhydryl-2-{2-[(benzylsulfonyl)amino]ethyl}-1H-indol-3-yl)propyl]benzoic acid]",6.49
21,"CCN(CC)S(=O)(=O)c1ccc(CS(=O)(=O)NCCc2c(CCOc3ccc(C(=O)O)cc3)c3cc(Cl)ccc3n2C(c2ccccc2)c2ccccc2)cc1 [Example 41, 4-(2-{1-Benzhydryl-5-chloro-2-[2-(4-diethylsulfamoyl-phenylmethanesulfonylamino) -ethyl]-1H-indol-3-yl}-ethoxy)-benzoic acid]",6.70
22,"O=C(O)c1ccc(OCCc2c(CCNS(=O)(=O)Cc3cccc(C(=O)O)c3)n(C(c3ccccc3)c3ccccc3)c3ccc(Cl)cc23)cc1 [Example 20, 3-({[(2-{1-benzhydryl-3-[2-(4-carboxyphenoxy)ethyl]-5-chloro-1H-indol-2-yl}ethyl)amino]sulfonyl}methyl)benzoic acid]",5.96
